In this test the target is T1, SYK (Homo sapiens, UniProt P43405).
T1 construct: 2.5 nM SYK, 400 nM Biotin-Aha-Aha-KEDPDYEWPSAKK
The test is described as follows: SYK Flash Plate Assay (enzyme assay). Conditions: Syk inhibition. The format is biochemical. The source says:
The following abbreviations refer respectively to the definitions below: • aq (aqueous), h (hour), g (gram), L (liter), mg (milligram), MHz (Megahertz), min. (minute), mm (millimeter), mmol (millimole), mM (millimolar), m.p. (melting point), eq (equivalent), mL (milliliter), L (microliter), ACN (acetonitrile), AcOH (acetic acid), CDCl3 (deuterated chloroform), CD3OD (deuterated methanol), CH3CN (acetonitrile), c-hex (cyclohexane), DCC (dicyclohexyl carbodiimide), DCM (dichloromethane), DIC (diisopropyl carbodiimide), DIEA (diisopropylethyl-amine), DMF (dimethylformamide), DMSO (dimethylsulfoxide), DMSO-d6 (deuterated dimethylsulfoxide), EDC (1-(3-dimethyl-amino-propyl)-3-ethylcarbodiimide), ESI (Electro-spray ionization), EtOAc (ethyl acetate), Et2O (diethyl ether), EtOH (ethanol), HATU (dimethylamino-([1,2,3]triazolo[4,5-b]pyridin-3-yloxy)-methylene]-dimethyl-ammonium hexafluorophosphate), HPLC (High Performance Liquid Chromatography), i-PrOH (2-propanol), K2CO3 (potassium carbonate), LC (Liquid Chromatography), MeOH (methanol), MgSO4 (magnesium sulfate), MS (mass spectrometry), MTBE (Methyl tert-butyl ether), NaHCO3 (sodium bicarbonate), NaBH4 (sodium borohydride), NMM (N-methyl morpholine), NMR (Nuclear Magnetic Resonance), PyBOP (benzotriazole-1-yl-oxy-tris-pyrrolidino-phosphonium hexafluorophosphate), RT (room temperature), Rt (retention time), SPE (solid phase extraction), TBTU (2-(1-H-benzotriazole-1-yl)-1,1,3,3-tetramethyluromium tetrafluoro borate), TEA (triethylamine), TFA (trifluoroacetic acid), THF (tetrahydrofuran), TLC (Thin Layer Chromatography), UV (Ultraviolet). Description of the In Vitro Assays SYK Flash Plate Assay
The kinase assay is performed either as 384-well Flashplate assay (for e.g. Topcount measurement) or as 384-well Image-Flashplate assay (for LEADseeker measurement).
2.5 nM SYK, 400 nM Biotin-Aha-Aha-KEDPDYEWPSAKK
and 10 μM ATP (spiked with 0.3 μCi 33P-ATP/well) are incubated in a total volume of 50 μl (60 mM Hepes, 10 mM MgCl2, 1.2 mM Dithiothreitol, 0.02% Brij35, 0.1% BSA, pH 7.5) with or without test compound for 1 hours at 30° C. The reaction is stopped with 25 μl 200 mM EDTA. After 30 Min at 30° C. the liquid is removed and each well washed thrice with 100 μl 0.9% sodium chloride solution. Non-specific reaction is determined in presence of 0.1 μM Staurosporine. Radioactivity is measured with Topcount (when using Flashplates) or with LEADseeker (when using Image-Flashplates) respectively. Results (e.g. IC50-values) are calculated with program tools provided by the IT-department (e.g. Symyx Assay Explorer, Genedata Screener). In Vivo Assays CIA

pIC50: −log10 of the molar value.

As to `N[C@@H]1CCCC[C@@H]1Nc1ncc2cncc(-c3c[nH]c4ccc(F)cc34)c2n1` (stereo in doubt) [Compound A46, (1S,2R)-N-[8-(5-Fluoro-1H-indol-3-yl)-pyrido[4,3-d]pyrimidin-2-yl]-cyclohexane-1,2-diamine], the pIC50 was over 7.00.

As to `Nc1ncc(-c2cc3ccccc3[nH]2)c2nc(N[C@@H]3CCCC[C@@H]3N)ncc12` (relative stereo) [Compound A10, N2-(cis-2-Amino-cyclohexyl)-8-(1H-indol-2-yl)-pyrido[4,3-d]pyrimidine-2,5-diamine], the pIC50 is over 7.00.

`COC[C@H](N)CNc1ncc2cncc(-c3c[nH]c4cc(C#N)ccc34)c2n1` [Compound A67, 3-[2-((R)-2-Amino-3-methoxy-propylamino)-pyrido[4,3-d]pyrimidin-8-yl]-1H-indole-6-carbonitrile] had a pIC50 of 4.30 to 6.00.

With `CC1(C)CCOc2cc(-c3cncc4cnc(N[C@@H]5CCCC[C@@H]5N)nc34)ccc21` [Compound A29], the pIC50 is 4.30 to 6.00.

Broadly, the pIC50 is the IC50 on a negative log10 scale, so that one unit is a factor of ten. Lower therefore signals a high IC50.

These data come from patent publication US9725462B2, “Pyridopyrimidine derivatives as protein kinase inhibitors” (Merck Patent GmbH, priority 2012, dated 2017).
